In patent publication US20140005412A1, “TREATMENT OF ARTERIAL AGEING BY HMG CoA REDUCTASE INHIBITOR” (FARMICOM PHARMACEUTICAL COMPANY D.O.O., priority 2011, published 2014):

How the values were obtained:
Format in all cases: in vivo, human
[1] = tested on: right common carotid artery; assay: Ultrasound measurement of β-stiffness of carotid artery; details: for β-stiffness, improvement: after 1 month vs before treatment
Protocol: (§1) Fifty apparently healthy male individuals (42.6±1.9 years) were recruited in double blind, randomized study. Inclusion criteria were: The control group (n=25) received placebo, while the test group (n=25) received subtherapeutic daily dose of fluvastatin sodium-10 mg daily (the recommended therapeutic daily dose is 40 to 80 mg) during a period of 1 month-30 days. All subjects underwent clinical examination, blood pressure measurements ([…] automated sphygmomanometer) and ultrasound measurement of flow-mediated dilatation of brachial artery (FMD), pulse-wave velocity (PWV) and β-stiffness of carotid artery at inclusion (0th day) and after 1 month (30th day) of the study. Fasting blood samples were taken at the beginning and at the end of the study for laboratory analysis. Blood glucose, electrolytes and cholesterol were obtained using the VITRO 5.1 FS Chemical system (Ortho Clinical Diagnostics, Inc.). The measurements of PWV and β-stiffness were performed on the right common carotid artery. The Aloka ultrasound device was also equipped with special software for automatic determination of the PWV and beta-stiffness through the analysis of pulse waves (Carerj S et al. Normal vascular aging evaluated by a new tool: e-tracking. Eur J Echocardiography 2006; suppl: S 49). All values were expressed as arithmetic mean±SEM and were normally distributed. Differences between values recorded at the beginning (0th day) and at the end of the study (30th day) were determined by one-way analysis of variance (ANOVA). When a significant interaction was present, the Bonferroni post-test was performed. […] All statistical analyses were performed using Graph Pad Prism 5.0 software.

arterial wall = assay: "Biological" arterial age according to age-related normogram
From the text: It is important to emphasize that there is a similarity between the terms morphological or structural which are used to describe the same characteristics by different authors but basically disclose the same characteristics of arterial wall. All three above mentioned methods FMD, PWV, and β-stiffness are standard in the art and generally widely accepted methods for estimation of functional or morphological characteristics of arteries. When administering the pharmaceutical composition according to the present invention the significant and unexpected improvement in all above mentioned characteristics are observed. Furthermore, by using age-related normogram obtained on large sample of apparently healthy subjects—who have a low cardiovascular risk as defined above—the estimation of “biological” arterial age can be determined. […] By using age-related normogram (according to the methods described in Jurasic M J et al. Beta stiffness—setting age standards. Acta Clin Croat 2009; 48:253-8; and Carerj S. Normal vascular ageing evaluated by a new tool: e-tracking. Eur J Echocardiography 2006; suppl 1:S49. Carerj S et al. Eur J Echocardiography 2006; suppl: S 49) the “biological” arterial age in participants according to Example 1 after 1 month of treatment and according to Example 2 after 5, 7 and 8 months after discontinuation of treatment was calculated (FIG. 3).

[2] = tested on: right common carotid artery; assay: Ultrasound measurement of pulse-wave velocity (PWV); details: for PWV, after treatment: after 1 month (30 days) treatment; for PWV, improvement: after 1 month vs before treatment
Protocol: as §1

[3] = Example 1 study, 10 mg, after 30 days of treatment
[4] = Example 2, rest period 5 months
[5] = Example 2, rest period 7 months
[6] = Example 2, rest period 8 months
[7] = Example 4, 10 mg daily, after 1 month treatment period
[8] = Example 5, rest period 3 months
[9] = Example 5, rest period 5 months
[10] = Example 5, rest period 8 months
[11] = Example 6, ten participants, 10 mg daily, 1. intervention, before
[12] = Example 6, 1. intervention, after 1 month of treatment
[13] = Example 6, 2. intervention (repetition), after 1 month of treatment
[14] = Example 6, 2. intervention (repetition), before, after rest period of 12 months

Compound: CC(C)n1c(/C=C/C(O)CC(O)CC(=O)O)c(-c2ccc(F)cc2)c2ccccc21 (centres unmarked) [Fluvastatin sodium, fluvastatin sodium]
- β-stiffness, improvement ([1]; Example 1, 10 mg daily): −10.9%
- β-stiffness, before treatment ([1]; Example 1, 10 mg daily): 7.10 U
- β-stiffness decreased by [1, 3]: 10.9%
- β-stiffness, residual improvement in % of effect achieved after 1 month of treatment [1, 4]: 30.4%
- β-stiffness, residual improvement in % of effect achieved after 1 month of treatment [1, 5]: 9%
- β-stiffness, residual improvement in % of effect achieved after 1 month of treatment [1, 6]: 0.9%
- β-stiffness of the carotid artery decreased by [1, 7]: 12.7%
- β-stiffness, after treatment ([1]; Example 4, 10 mg daily, after 1 month (30 days) treatment): 6.10 U
- β-stiffness, improvement ([1]; Example 4, 10 mg daily): −12.7%
- β-stiffness, before treatment ([1]; Example 4, 10 mg daily): 6.88 U
- β-stiffness, residual improvement in % of effect achieved after 1 month of treatment [1, 8]: 50.1%
- β-stiffness, residual improvement in % of effect achieved after 1 month of treatment [1, 9]: 33.6%
- β-stiffness, residual improvement in % of effect achieved after 1 month of treatment [1, 10]: 3.1%
- β-stiffness [1, 11]: 6.4 ± 0.8 U
- β-stiffness [1, 12]: 5.7 ± 0.7 U
- β-stiffness [1, 13]: 6.0 ± 0.6 U
- β-stiffness [1, 14]: 6.6 ± 0.6 U
- Arterial age according to age normogram, after treatment (arterial wall; Example 1, 10 mg daily, after 1 month treatment): 38.2 years
- Arterial age according to age normogram, improvement (arterial wall; Example 1, 10 mg daily, after 1 month vs before treatment): −6.8 years
- Arterial age according to age normogram, before treatment (arterial wall; Example 1, 10 mg daily, before treatment): 45.0 years
- Arterial age according to age-related normogram (arterial wall; [4]): 42.3 years
- Arterial age according to age-related normogram, difference (in brackets) to before treatment (arterial wall; [4]): −2.7 years
- Arterial age according to age-related normogram, difference (in brackets) to before treatment (arterial wall; [6]): −0.5 years
- PWV, after treatment ([2]; Example 1, 10 mg daily): 5.41 m/s
- PWV, improvement ([2]; Example 1, 10 mg daily): −6.4%
- PWV, before treatment ([2]; Example 1, 10 mg daily): 5.76 m/s
- PWV decreased by [2, 3]: 6.4%
- PWV, residual improvement in % of effect achieved after 1 month of treatment [2, 4]: 29.7%
- PWV, residual improvement in % of effect achieved after 1 month of treatment [2, 5]: 10%
- PWV, residual improvement in % of effect achieved after 1 month of treatment [2, 6]: 1.9%
- PWV decreased by [2, 7]: 10.4%
- PWV, after treatment ([2]; Example 4, 10 mg daily): 5.00 m/s
- PWV, improvement ([2]; Example 4, 10 mg daily): −10.4%
- PWV, before treatment ([2]; Example 4, 10 mg daily): 5.52 m/s
- PWV, residual improvement in % of effect achieved after 1 month of treatment [2, 8]: 55.2%
- PWV, residual improvement in % of effect achieved after 1 month of treatment [2, 9]: 30.1%
- PWV, residual improvement in % of effect achieved after 1 month of treatment [2, 10]: 5.2%
- PWV [2, 11]: 5.5 ± 0.4 m/s
- PWV [2, 12]: 5.1 ± 0.4 m/s
- PWV [2, 13]: 5.3 ± 0.3 m/s
- PWV [2, 14]: 5.6 ± 0.3 m/s
